Results: US20140241990A1, “METHODS OF USING ADENOSINE A1 RECEPTOR ACTIVATION FOR TREATING DEPRESSION” (TUFTS UNIVERSITY, priority 2011, published 2014)
“Also recorded” adds a separate entry of the source. Blank lines part the entries; values can stand above or below the compound they belong to.

How the values were obtained:
C57Bl/6J mice [1] = assay: Forced swim test (FST); format: in vivo, mouse; conditions: for duration of reduced immobility in forced swim test after onset of administration: cohorts tested 12, 36, 84 and 108 hours after first treatment
Method: The forced swim test is typically performed in a quiet experimental room as described in previous reports (Porsolt, R. et al., Arch. Int. Pharmacodyn. Ther., 229:327-336, 1977). For a typical test, animals are placed, for example, into a plexiglass cylinder (25 cm height, 25 cm diameter) containing 20 cm height of water at 23-25 C for 10 min. The animals typically display very fast swimming initially, lasting 1-2 min, followed by increasing immobility. Immobile time is measured during the last 4 min of the total period for statistical analysis. The animals are videotaped and movements are digitized from above. Immobility can be automatically scored, for example, using Ethovision (Noldus Information Technology Inc., Leesburg, U.S.A.).
The forced swim test (FST) was performed in a quiet experimental room. Animals where placed into a Plexiglass cylinder (25 cm height, 25 cm diameter) containing 20 cm height of water at 23-25° C. for 10 min. […] Immobile time was measured during the last 4 min of the total period for statistical analysis. The animals were videotaped and movements were digitized from above. Immobility was automatically scored using Ethovision (Noldus Information Technology Inc., Leesburg, U.S.A.). Results from tracking analysis were analyzed using ANOVA to compare means.

mice [2] = assay: Open field test (locomotor activity); format: in vivo, mouse; conditions: wildtype mice treated i.c.v.
Method: The open field test was performed in accordance with the […] resource phenotyping protocol (Brown, S. et al., Nat. Genet., 37:1155, 2005). Open field behavior of mice was videorecorded from above, and assessed using Ethovision. Results from tracking analysis were analyzed using ANOVA to compare means.

A1R = target: T1, A1R (Mus musculus, UniProt Q60612); assay: fEPSP enhancement at Schaeffer collateral synapse of hippocampal area CA1 in acute slices (adenosine tone); format: cell-based; conditions: CPT 200 nM
T1 construct: from tissue; host or cells: acute mouse hippocampal slices (C57Bl/6J background; wild type and dnSNARE mice)
T1 sequence (Q60612 1-326): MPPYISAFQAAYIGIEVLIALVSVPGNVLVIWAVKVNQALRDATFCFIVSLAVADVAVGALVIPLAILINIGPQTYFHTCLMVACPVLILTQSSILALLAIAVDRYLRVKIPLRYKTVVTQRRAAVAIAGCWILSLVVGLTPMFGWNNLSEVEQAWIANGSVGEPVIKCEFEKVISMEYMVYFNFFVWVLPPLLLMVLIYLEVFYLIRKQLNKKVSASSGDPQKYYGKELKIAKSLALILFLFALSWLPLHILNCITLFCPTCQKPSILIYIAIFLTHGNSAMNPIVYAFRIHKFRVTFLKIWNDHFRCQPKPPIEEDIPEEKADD
Method: Mice were briefly anaesthetized with isofluorane and then decapitated, and slices were prepared (Manzoni, O. et al., Science, 265:2098-101, 1994). The brain was rapidly extracted in cold cutting solution (124 mM NaCl, 26 mM NaHCO3, 1 mM NaHPO4, 10 mM Glucose, 1 mM sodium pyruvate, 0.6 mM ascorbate, 2.9 mM KCl, 1 mM CaCl2, 2 mM MgCl2) bubbled continuously with a 95% O2 5% CO2 gas mixture. Slices 310 μm thick were cut using a Leica VT 1000S Vibratome. Isolated hippocampal slices were transferred to a bath containing continuously oxygenated cutting solution and incubated at 30 C for a 1.5 hour recovery period. Extracellular recordings were conducted in artificial cerebrospinal fluid (aCSF, 124 mM NaCl, 26 mM NaHCO3, 1 mM NaHPO4, 10 mM Glucose, 1 mM sodium pyruvate, 2.9 mM KCl, 2 mM CaCl2, 1 mM MgCl2) continuously superfused at 1.2 mL/minute and maintained at 32.8 C. Extracellular stimulation were delivered using a 125 μm concentric Pt—Ir electrode in unipolar mode with a pulse width of 0.1 ms.
A relative measure of the extracellular adenosine level can be obtained by determining the proportional enhancement of synaptic transmission in response to the application of the A1R antagonist 8-cyclopentyltheophylline (CPT; 200 nM) an approach that has been validated using electrochemical biosensors (Schmitt, L. et al., J. Neurosci., 32:4417-25, 2012).
The physiological mechanisms underlying the effects of sleep deprivation was investigated by asking whether sleep deprivation leads to an elevation of extracellular adenosine. A relative measure of the extracellular adenosine level can be obtained by determining the proportional enhancement of synaptic transmission in response to the application of the A1R antagonist 8-cyclopentyltheophylline (CPT; 200 nM). Independent measurements of extracellular adenosine using electrochemical biosensors have validated this approach. Field excitatory postsynaptic potentials (fEPSP) were measured at the Schaeffer collateral synapse of hippocampal area CA1 before and following application of CPT.

C57Bl/6J mice [3] = assay: Tail suspension test (TST); format: in vivo, mouse; conditions: CPT 4 mM i.c.v.
Method: Results from tracking analysis were analyzed using ANOVA to compare means.

mice [4] = assay: Rotorod test; format: in vivo, mouse; conditions: CCPA versus vehicle
Description: The rotorod used a rotating cylinder that was 4 cm in diameter, fixed 35 cm above the ground and enclosed by transparent Plexiglas. The rotorod cylinder was covered in textured rubber coating, which facilitates traction. A small electric motor provided power to turn the rotorod via a rubber belt. The rotorod was set to rotate once every 5 s.

mice [5] = assay: EEG/EMG recording, vigilance state scoring and power spectra; format: in vivo, mouse
Description: Mice were implanted with EEG and EMG electrodes under ketamine/xylazine anesthesia. After 5-7 days of post-operative recovery, lightweight recording cables were connected to the head implants and mice were placed in cylindrical polypropylene containers containing nest material, water and food ad libitum. Mice were acclimated to the sleep chamber for 5-7 days (12:12 light-dark (LD) cycle; lights on at 8 AM). EEGs and EMGs were then collected on a Pinnacle Technologies system and digitized at 1000 Hz. Following acclimation, baseline 24 h recordings were made.
NonREM sleep (“NREM” sleep), REM sleep and wake were determined by an experimenter blind to experimental condition. On the baseline day, the amount of each state (expressed as a percentage of total recording time) and the duration of individual sleep and wake episodes were computed. Transitions between NREM sleep and REM sleep were also measured during the light phase. To investigate sleep the beneficial effects of sleep deprivation mice, mice were sleep deprived (SD) from 8 a.m. to 8 p.m. at the beginning of the major sleep period (light phase) using a Pinnacle sleep deprivation chamber. All EEG data were analyzed by normalizing each data point to the average power of the EEG from 0.5 to 40 Hz (FIG. 4), and by normalizing each data point (+12 hr, +36 hr, +84 hr, +108 hr) to the corresponding vehicle data points (FIG. 8).
To investigate whether A1R activation alone is capable of altering the sleep architecture and mimicking the effects of sleep deprivation, the adenosine receptor agonist 2-chloro-N(6)-cyclopentyladenosine (CCPA; […]) was administered via i.c.v. cannulae. Following recovery and one week of habituation to the headstage, EEG activity was recorded from mice with i.c.v. saline vehicle infusion for two days to establish baseline EEG activity patterns. The EEG changes following injection of the A1R agonist CCPA were monitored. […] The normalized power from 0.5 to 4.0 Hz was also analyzed, comparing saline baseline to CCPA infusion (FIG. 4D).
Adenosine agonists cause a sustained enhancement of delta power during wakefulness. As a final step in testing the antidepressive actions of adenosine activation of A1Rs was determined to be sufficient to mimic the effects of sleep deprivation on depressive-like behaviors. […] The adenosine receptor agonist 2-chloro-N(6)-cyclopentyladenosine (CCPA; 500 nM) was delivered i.c.v. while performing EEG/EMG recordings.

mice [6] = assay: Sucrose consumption test (anhedonia); format: in vivo, mouse; conditions: i.c.v. CCPA, three bolus injections at ZT=0, 3 and 6; vehicle baseline 30.55±3.60 g/kg; p=0.008
Method: Sucrose consumption experiments can be conducted known to one of skill in the art. For a typical test, mice are gradually acclimatized to increasing durations of water deprivation (0, 4, 8, 12, and 16 hours) and i.c.v. infusion of saline over the course of five days to minimize the stressfulness of the testing. On the sixth day, instead of receiving water at the end of the deprivation period, mice are given a 1% v/w solution of sucrose. This is repeated for three days (days 6-9) to establish baseline sucrose consumption levels. During the deprivation period preceding day 10, mice are given i.c.v. infusions of the identified test compound, followed by the presentation of sucrose as during baseline consumption testing. The average baseline (saline infusion) sucrose consumption is then compared to the average sucrose consumption following test compound infusion. Results are analyzed using a Student's t-test to compare means.
Sucrose consumption was conducted (Papp, M. et al., Psychopharmacology (Berl.), 104:255-9, 1991). After the acclimatization and habituation period mice were given access to sucrose for three days (days 6-9) to establish baseline sucrose consumption levels. Mice were then given i.c.v. infusions of CCPA administered as a series of three bolus injections at ZT=0, 3 and 6, followed by the presentation of sucrose (day 10). […]

[7] = CCPA 500 nm i.c.v., percentage of recording time

Structure (SMILES): CN(C)CCCN1c2ccccc2CCc2ccccc21 [imipramine]
immobility in behavioral despair tasks (C57Bl/6J mice [1]; 14 days of treatment): reduces immobility
time spent immobile, forced swim test (C57Bl/6J mice [1]; wildtype littermates, imipramine 20 mg/kg, chronic 14 days): 73.00 ± 9.53 s

increase in fEPSP (adenosine tone) (A1R; WT undisturbed mice, ZT=0): 481.70±85.04%
proportional enhancement of fEPSP (adenosine tone) (A1R; WT, ZT=12 (end of light phase)): 128.15±28.91%
adenosine tone (fEPSP enhancement) (A1R; after 72 h of sleep deprivation, ZT=0): 104.62±18.31%
adenosine tone (fEPSP enhancement) (A1R; dnSNARE, ZT=0): 61.98±16.80%
adenosine tone (fEPSP enhancement) (A1R; dnSNARE, ZT=12): 27.91±5.10%
adenosine tone (fEPSP enhancement) (A1R; transient total sleep deprivation ZT 0 to ZT 12): 367.61±24.95%
Structure (SMILES): Cn1c(=O)c2[nH]c(C3CCCC3)nc2n(C)c1=O [CPT, 8-cyclopentyltheophylline]
locomotor activity / total distance traveled in open field (mice [2]): do not differ
basal immobility, forced swim test (C57Bl/6J mice [1]; CPT 4 mM i.c.v., no sleep deprivation): 176.43 ± 21.77 s
immobility after sleep deprivation, forced swim test (C57Bl/6J mice [1]; CPT 4 mM i.c.v., sleep deprivation): 167.70 ± 18.89 s
basal immobility, tail suspension test (C57Bl/6J mice [3]; no sleep deprivation): 187.60 ± 11.46 s
immobility after sleep deprivation, tail suspension test (C57Bl/6J mice [3]; sleep deprivation): 204.00 ± 3.58 s

Structure (SMILES): OCC1OC(n2cnc3c(NC4CCCC4)nc(Cl)nc32)C(O)C1O (centres unmarked) [CCPA, 2-(2-chloro-6-(cyclopentylamino)-9H-purin-9-yl)-5-(hydroxymethyl)tetrahydrofuran-3,4-diol]
locomotor activity / total distance traveled in open field (mice [2]): without accompanying changes in locomotor activity; also recorded: do not differ
latency to fall / locomotor activity in rotorod test (mice [4]): without accompanying changes in locomotor activity; also recorded: do not differ
beneficial effects in forced swim test 3 and 5 days after infusion (C57Bl/6J mice [1]; 3 and 5 days after infusion): no longer observed
effect on immobile time, forced swim test (C57Bl/6J mice [1]; CCPA i.c.v. (ZT=0, 3 and 6), tested at ZT=12): decreased immobile time; also recorded: reduction in immobile time; also recorded: significantly reduces immobility
duration of reduced immobility in forced swim test after onset of administration (C57Bl/6J mice [1]): 36 h
duration of reduced immobility in forced swim test after onset of administration (C57Bl/6J mice [1]; listed as COPA): up to 36 hours
duration of beneficial effects in forced swim test (C57Bl/6J mice [1]; three i.c.v. injections spaced evenly across a 12 hour period, cohorts at 24 hours, +1, +3, +5 days): 24 h
percent wake at 12 h after administration (mice [5]; 12 h (ZT 12) after CCPA): significantly greater percentage of time awake; also recorded: increased percent wake
increased percent wake at 36 h after administration (mice [5]; 36 h following CCPA): no longer present
EEG power spectra compared to baseline saline (mice [5]; CCPA 500 nm i.c.v.): dramatic increase in the power spectra
duration of REM sleep (mice [5]; [7]): 18.13±1.30%
duration of non-REM sleep (mice [5]; [7]): 48.75±1.85%
duration of wake (mice [5]; [7]): 31.38±1.93%
delta power (0.5-4 Hz) during wakefulness after mice awoke (mice [5]; CCPA i.c.v. ZT=0, 3 and 6, p<0.001): prominent increase in delta power
percentage of time awake during administration (mice [5]; CCPA i.c.v. infusion, 500 nM): transient decrease; also recorded: decreased
acute effect on delta power (mice [5]; acute, during CCPA action): reduce delta power
time after last administration by which effects on sleep had reversed (mice [5]; reversed by ZT=11, last administration at ZT=6): ≤ 5 h
time asleep ZT 1 through 10 compared to vehicle (mice [5]; three consecutive CCPA infusions (ZT=0, 3, 6), 500 nM i.c.v., p<0.002): significantly greater time
sucrose consumption (mice [6]): 51.45 ± 6.35 g/kg
